# In patent publication US11076595B2, “1-(n,n-disubstituted carbamoyl) 4-(substituted sulfonyl)triazolin-5-one derivative, 4-(n,n-disubstituted carbamoyl) 1-(substituted sulfonyl)triazolin-5-one derivative, and herbicide containing said derivative as active ingredient” (HOKKO CHEMICAL INDUSTRY CO., LTD., priority 2017, dated 2021):
# Columns and labels:
# Format in all cases: in vivo
# Echinochloa crus-galli [1] = test: Test Example 11: herbicidal effect test by soil treatment in paddy field; settings: 120 g/10a active ingredient, 14 days after treatment
# Description: (§1) A Wagner pot having an area of 1/10000 are was filled with paddy field soil and after adding water, a chemical fertilizer (N:P:K=17:17:17) was mixed, followed by puddling. Thereafter, 30 grains of each of Echinochloa crus-galli, broad-leaved weed (Lindernia pyxidaria, Monochoria vaginalis) and Scirpus juncoides seeds were sown to a depth of 0 to 1 cm. Immediately after the sowing, the pot was flooded, and the depth of water was kept at about 3 cm. The pot was subsequently managed in a glass greenhouse. Just after that, an emulsifiable concentrate prepared according to Formulation Example 15 by using the compound shown in Table 9 below was diluted with water, and a predetermined amount of the water-diluted formulation was added dropwise. The application rate of the active ingredient, by conversion, corresponded to 120 g per 10 are.
# (§2) This test was performed with two replications per one formulation concentration plot, and 14 days after the formulation treatments, the weed suppression rate (%) was determined according to the following equation (Math. 2). Weed suppression rate (%)=(1−average dry weight (g) of plants in treated plots/average dry weight (g) of plants in untreated plots)×100 [Math. 2]
# Lindernia pyxidaria [2] = test: as above; settings: 120 g/10a active ingredient, 14 days after treatment
# Description: as §1, §2
# Monochoria vaginalis [3] = test: as above; settings: 120 g/10a active ingredient, 14 days after treatment
# Description: as §1, §2
# Scirpus juncoides [4] = test: as above; settings: 120 g/10a active ingredient, 14 days after treatment
# Description: as §1, §2
# Echinochloa crus-galli [5] = test: Test Example 12: herbicidal effect test by treatment during growing period in paddy field; settings: 120 g/10a; treatment seven days after sowing in flooded paddy pot; assessed 14 days after treatment
# Procedure: as §2
# as §1, with “Seven Days” for “Just”, “sowing,” for “that,”, “10” for “9”, “are. The test was performed with two replications per one formulation concentration plot, and 14 days after the formulation treatments, the weed suppression rate (%) was determined according to the equation (Math. 2).” for “are.”
# Lindernia pyxidaria [6] = test: as above; settings: 120 g/10a; treatment seven days after sowing in flooded paddy pot; assessed 14 days after treatment
# Procedure: as §2
# as §1, with “Seven Days” for “Just”, “sowing,” for “that,”, “10” for “9”, “are. The test was performed with two replications per one formulation concentration plot, and 14 days after the formulation treatments, the weed suppression rate (%) was determined according to the equation (Math. 2).” for “are.”
# Monochoria vaginalis [7] = test: as above; settings: 120 g/10a; treatment seven days after sowing in flooded paddy pot; assessed 14 days after treatment
# Procedure: as §2
# as §1, with “Seven Days” for “Just”, “sowing,” for “that,”, “10” for “9”, “are. The test was performed with two replications per one formulation concentration plot, and 14 days after the formulation treatments, the weed suppression rate (%) was determined according to the equation (Math. 2).” for “are.”
# Scirpus juncoides [8] = test: as above; settings: 120 g/10a; treatment seven days after sowing in flooded paddy pot; assessed 14 days after treatment
# Procedure: as §2
# as §1, with “Seven Days” for “Just”, “sowing,” for “that,”, “10” for “9”, “are. The test was performed with two replications per one formulation concentration plot, and 14 days after the formulation treatments, the weed suppression rate (%) was determined according to the equation (Math. 2).” for “are.”
Compound,Weed suppression rate (%) Echinochloa crus-galli (Echinochloa crus-galli [1]) [%],Weed suppression rate (%) Lindemia pyxidaria (Lindernia pyxidaria [2]) [%],Weed suppression rate (%) Monochoria vaginalis (Monochoria vaginalis [3]) [%],Weed suppression rate (%) Scirpus juncoides (Scirpus juncoides [4]) [%],Weed suppression rate (%) Echinochloa crus-galli (Echinochloa crus-galli [5]) [%],Weed suppression rate (%) Lindemia pyxidaria (Lindernia pyxidaria [6]) [%],Weed suppression rate (%) Monochoria vaginalis (Monochoria vaginalis [7]) [%],Weed suppression rate (%) Scirpus juncoides (Scirpus juncoides [8]) [%]
CC(C)N(C(=O)n1cnn(S(=O)(=O)c2ccc(C(C)(C)C)cc2)c1=O)c1ccccc1F [Compound 11-672],90,80,80,90,90,80,80,90
Cc1cc(C)c(S(=O)(=O)n2ncn(C(=O)N(c3ccc(F)c(F)c3F)C(C)C)c2=O)c(C)c1 [Compound 11-866],100,100,90,90,80,70,90,60
Cc1cc(C)c(S(=O)(=O)n2ncn(C(=O)N(C)c3ccc(F)cc3F)c2=O)c(C)c1 [Compound 11-1140],100,100,90,100,100,80,90,100
CC(C)N(C(=O)n1cnn(S(=O)(=O)c2ccccc2F)c1=O)c1cccc(F)c1F [Compound 11-401],100,100,100,90,100,80,100,100
CC(C)N(C(=O)n1cnn(S(C)(=O)=O)c1=O)c1ccccc1F [Compound 11-2],90,80,80,90,90,90,80,90
Cc1ccc(S(=O)(=O)n2ncn(C(=O)N(c3c(F)c(F)cc(F)c3F)C(C)C)c2=O)cc1 [Compound 11-642],100,80,70,70,100,70,90,100
CC(C)N(C(=O)n1cnn(S(=O)(=O)c2cccc(F)c2)c1=O)c1ccc(F)c(F)c1F [Compound 11-441],100,90,60,100,100,60,80,100
Cc1cc(C)c(S(=O)(=O)n2ncn(C(=O)N(c3ccc(F)cc3)C(C)C)c2=O)c(C)c1 [Compound 11-855],100,90,90,90,80,60,80,80
CC(C)N(C(=O)n1cnn(S(=O)(=O)c2ccccc2F)c1=O)c1ccccc1F [Compound 11-392],90,80,80,90,90,80,80,90
Cc1ccc(N(C(=O)n2cnn(S(=O)(=O)c3cccs3)c2=O)C(C)C)c(F)c1 [Compound 11-1036],90,90,90,90,90,80,80,90
CN(C(=O)n1cnn(S(=O)(=O)c2ccc(C(C)(C)C)cc2)c1=O)c1ccc(F)cc1F [Compound 11-1141],–,–,–,–,90,70,80,60
CC(C)N(C(=O)n1cnn(S(=O)(=O)c2ccc(Cl)cc2)c1=O)c1ccc(Cl)cn1 [Compound 11-612],100,100,70,70,80,90,70,90
Cc1ccc(S(=O)(=O)n2ncn(C(=O)N(c3ccc(C)cc3F)C(C)C)c2=O)cc1 [Compound 11-651],90,90,90,90,90,80,80,90
CC(C)N(C(=O)n1cnn(S(=O)(=O)c2ccccc2F)c1=O)c1ccc(C(F)(F)F)cc1F [Compound 11-419],100,100,60,70,90,60,80,60
CC(C)N(C(=O)n1cnn(S(=O)(=O)c2c(F)c(F)c(F)c(F)c2F)c1=O)c1ccccc1F [Compound 11-801],90,90,90,90,90,60,80,60
Cc1ccc(S(=O)(=O)n2ncn(C(=O)N(c3ccc(Br)cc3Cl)C(C)C)c2=O)cc1 [Compound 11-648],–,–,–,–,60,60,70,90
CN(C(=O)n1cnn(S(=O)(=O)c2ccc(F)cc2)c1=O)c1ccc(F)cc1F [Compound 11-1137],100,90,80,100,100,70,80,100
CN(C(=O)n1cnn(S(=O)(=O)c2ccc(Cl)cc2)c1=O)c1ccc(F)cc1F [Compound 11-1134],–,–,–,–,80,70,70,100
CC(C)N(C(=O)n1cnn(S(=O)(=O)N(C)C)c1=O)c1c(F)c(F)cc(F)c1F [Compound 11-1069],–,–,–,–,90,70,70,60
